# Patent US20050282910A1, “Methods of application of chemical compounds having therapeutic activities in treating cancers” (priority 2003, published 2005)
# Where two headings read alike, the source gives them in different places.
# Columns and labels:
# K562/adr = test: Reversal of drug resistance by ethanol extracts of Schisandra chinensis fruit, MTT cytotoxicity of anticancer agents; format: cell-based, human; conditions: for IC50 (ng/ml) +ethanol extract: anticancer agent in the presence of ethanol extracts (50 μg/ml)
# Description: Assays were carried out in triplicate against human MDR cancer cell lines K562/adr, KBv200, and MCF7/adr. […] Alternatively, flow cytometry assays using FACS Calibur equipped with software Cellquest 3.1f (Becton-Dickinson, Holbrook, N.J.) were applied to count the cell numbers in each sample.
# [1] = test system: human leukemia MDR cell line K562/adr; test: Reversal of P-glycoprotein-mediated drug resistance by Schisandrin A, Schisandrol A, Schisantherin A, MTT cytotoxicity of anticancer agents; format: cell-based; conditions: for IC50: Homo sapiens; for IC50 (ng/ml) +Schisandrin A: anticancer agent in the presence of Schisandrin A (10 μg/ml); for IC50 (ng/ml) +Schisantherin A: anticancer agent in the presence of Schisantherin A (10 μg/ml)
# Description: Assays were carried out in triplicate against human leukemia MDR cell line K562/adr, human breast cancer MDR cell line MCF7/adr, and human epidermoid carcinoma MDR cell line KBv200.
# [2] = test system: human epidermoid carcinoma MDR cell line KBv200; conditions: for IC50 (ng/ml) +Schisandrin A: anticancer agent in the presence of Schisandrin A (10 μg/ml); for IC50 (ng/ml) +Schisandrin A / IC50 (ng/ml) +Schisantherin A: 72 hours; for IC50 (ng/ml) +Schisantherin A: anticancer agent in the presence of Schisantherin A (10 μg/ml)
# [3] = test system: human breast cancer MDR cell line MCF7/adr; conditions: for IC50 (ng/ml) +Schisandrin A: anticancer agent in the presence of Schisandrin A (10 μg/ml); for IC50 (ng/ml) +Schisandrin A / IC50 (ng/ml) +Schisantherin A: 72 hours; for IC50 (ng/ml) +Schisantherin A: anticancer agent in the presence of Schisantherin A (10 μg/ml)
# [4] = test system: human epidermoid carcinoma MDR cell line KBv200; test: cells; conditions: KBv200, 72 h
# [5] = test system: human breast cancer MDR cell line MCF7/adr; test: cells; conditions: NCI/ADR-RES, 72 h
# KBv200 = test: Reversal of drug resistance by ethanol extracts of Schisandra chinensis fruit, MTT cytotoxicity of anticancer agents; conditions: Homo sapiens, KBv200, 72 h, read-out: IC50 (ng/ml) −ethanol extract
# MCF7/adr = test: as above; conditions: for IC50: Homo sapiens, NCI/ADR-RES, 72 h, read-out: IC50 (ng/ml) −ethanol extract; for IC50 (ng/ml) +ethanol extract: anticancer agent in the presence of ethanol extracts (50 μg/ml), 72 hours
# HL60/adr = test: Reversal of MRP1-mediated drug resistance, MTT cytotoxicity of anticancer agents; format: cell-based, human; conditions: for IC50 (ng/ml) +Schisandrin B: anticancer agent in the presence of Schisandrin B (10 μg/ml); for IC50: Homo sapiens, HL60/ADR, 72 h; for drug sensitivity of HL60/adr toward the anticancer agents (in words): compound 10 μg/ml
# Description: Assays were carried out in triplicate against MDR cancer cell HL60/adr. MTT assays as described previously (X.
# MRP1 = molecular target: T1, MRP1 (Homo sapiens, UniProt P33527); test: Daunorubicin accumulation in HL60/adr cells (MRP1-mediated drug efflux), flow cytometry; format: cell-based; conditions: 2 μg/ml daunorubicin
# T1 construct: human cancer cell line HL60/adr, an MDR cell line characterized by MRP1 overexpression; endogenous in cells; host or cells: HL60/adr (human MDR cancer cell line)
# T1 sequence (P33527 whole entry): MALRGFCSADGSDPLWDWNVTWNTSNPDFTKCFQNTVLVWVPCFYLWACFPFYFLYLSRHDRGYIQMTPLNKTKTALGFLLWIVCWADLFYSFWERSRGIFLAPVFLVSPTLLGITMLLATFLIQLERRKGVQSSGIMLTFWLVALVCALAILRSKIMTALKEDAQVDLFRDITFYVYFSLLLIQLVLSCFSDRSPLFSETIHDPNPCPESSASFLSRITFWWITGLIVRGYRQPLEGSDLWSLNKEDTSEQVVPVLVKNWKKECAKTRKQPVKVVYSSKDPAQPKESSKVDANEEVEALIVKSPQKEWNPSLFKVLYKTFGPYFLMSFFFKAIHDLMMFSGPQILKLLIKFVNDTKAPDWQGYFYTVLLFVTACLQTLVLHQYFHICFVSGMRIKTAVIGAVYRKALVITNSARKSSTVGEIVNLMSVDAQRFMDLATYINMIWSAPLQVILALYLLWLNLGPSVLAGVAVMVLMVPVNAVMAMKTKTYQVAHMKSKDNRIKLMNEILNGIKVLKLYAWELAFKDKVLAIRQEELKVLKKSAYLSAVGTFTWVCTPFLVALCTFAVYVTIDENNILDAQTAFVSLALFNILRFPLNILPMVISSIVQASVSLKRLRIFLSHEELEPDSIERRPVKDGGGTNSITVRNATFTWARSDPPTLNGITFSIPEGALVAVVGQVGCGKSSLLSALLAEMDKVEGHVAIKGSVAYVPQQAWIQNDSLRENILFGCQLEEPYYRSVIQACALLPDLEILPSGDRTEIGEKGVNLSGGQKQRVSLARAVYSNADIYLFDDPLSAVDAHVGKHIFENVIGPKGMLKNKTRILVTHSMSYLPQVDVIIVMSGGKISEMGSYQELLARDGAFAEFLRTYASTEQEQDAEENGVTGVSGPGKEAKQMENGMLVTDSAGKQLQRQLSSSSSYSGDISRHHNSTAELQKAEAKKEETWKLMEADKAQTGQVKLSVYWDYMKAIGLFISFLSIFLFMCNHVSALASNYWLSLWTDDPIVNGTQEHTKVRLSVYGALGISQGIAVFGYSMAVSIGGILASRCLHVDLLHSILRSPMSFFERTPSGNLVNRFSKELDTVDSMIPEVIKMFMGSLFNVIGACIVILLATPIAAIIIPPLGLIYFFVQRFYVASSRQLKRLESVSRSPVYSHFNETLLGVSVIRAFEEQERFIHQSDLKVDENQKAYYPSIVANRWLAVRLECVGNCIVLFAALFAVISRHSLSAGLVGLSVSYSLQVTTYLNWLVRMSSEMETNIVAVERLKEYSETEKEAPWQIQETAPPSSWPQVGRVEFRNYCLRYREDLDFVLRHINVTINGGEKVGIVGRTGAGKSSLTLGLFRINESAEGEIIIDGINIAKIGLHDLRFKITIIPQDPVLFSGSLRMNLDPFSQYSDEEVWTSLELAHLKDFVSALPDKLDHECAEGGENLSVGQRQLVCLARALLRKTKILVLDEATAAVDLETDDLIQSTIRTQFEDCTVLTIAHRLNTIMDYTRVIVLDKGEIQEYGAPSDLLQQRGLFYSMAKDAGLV
# From the text: MRP1 functions as a drug pump that unilaterally pumps the anticancer agents out of MDR cancer cells. Inhibition of MRP1 results in an increase of intracellular drug concentration within cancer cells.
# MCF7 = test: Enhancement of anticancer agent-induced apoptosis and necrosis, Anexin V-FITC/PI; format: cell-based, human; conditions: 48 hours; for Apoptotic + necrotic (%): MCF7, doxorubicin 0.5 μg/ml, Schisandrin B 20 μg/ml
# Description: (§1) To illustrate the activities of Schisandrin B or its analogs enhancing the apoptosis of cancer cells induced by an anticancer agent according to the present disclosure, human cancer cell line SMMC7721, a non-drug-resistant hepatic cancer cell line, and MCF7, a non-drug-resistant breast cancer cell line, were selected for use. Assays were carried out in triplicates against SMMC7721 or MCF7. […] Cells were collected and the apoptotic cells and necrotic cell percentages were determined using Anexin V-FITC/PI kit (Sigma, St. Louis, Mo., USA) according to manufacturer's instructions. Alternatively, the apoptotic and necrotic cell percentages were measured using DNA Plus kit (Becton-Dickinson, USA) according to the manufacturer's instructions.
# SMMC7721 = test: as above; format: cell-based, human; conditions: 48 hours; for Apoptotic(%) / Necrotic(%): doxorubicin 0.5 μg/ml
# Description: as §1
# [6] = read-out: IC50 (ng/ml) −Schisandrin A
# [7] = read-out: IC50 (ng/ml) −Schisantherin A
# [8] = HL60/adr, by Schisandrin B (10 μg/ml)
# [9] = HL60/adr, anticancer agent in the absence of Schisandrin B, 72 hours, read-out: IC50 (ng/ml) −Schisandrin B
# [10] = Schisandrin B 20 μg/ml with doxorubicin 0.5 μg/ml
# [11] = SMMC7721, Schisandrin B 20 μg/ml
smiles,measurement,setting,value
COc1cccc2c1C(=O)c1c(O)c3c(c(O)c1C2=O)C[C@@](O)(C(C)=O)C[C@@H]3O[C@H]1C[C@H](N)[C@H](O)[C@H](C)O1 [Daunorubicin],IC50 (ng/ml) +ethanol extract,K562/adr; 72 hours,150 ± 19 ng/mL
same,IC50,"[1]; K562/adr, anticancer agent in the absence of Schisandrin A, 72 hours, read-out: IC50 (ng/ml) −Schisandrin A",4780 ± 1380 ng/mL
same,IC50,"[1]; K562/adr, anticancer agent in the absence of Schisantherin A, 72 hours, read-out: IC50 (ng/ml) −Schisantherin A",1300 ± 293 ng/mL
same,IC50 (ng/ml) +Schisandrin A,"[1]; K562/adr, 72 hours",67.2 ± 21.3 ng/mL
same,IC50 (ng/ml) +Schisantherin A,"[1]; K562/adr, 72 hours",71 ± 22 ng/mL
same,IC50 (ng/ml) +Schisandrin A,[2],2.47 ± 0.9 ng/mL
same,IC50 (ng/ml) +Schisantherin A,[2],3.4 ± 1.3 ng/mL
same,IC50 (ng/ml) +Schisandrin A,[3],245 ± 46 ng/mL
same,IC50 (ng/ml) +Schisantherin A,[3],58.8 ± 21 ng/mL
same,IC50,[4]; [6],26.9 ± 8.1 ng/mL
same,IC50,[4]; [7],26.9 ± 4.3 ng/mL
same,IC50,[5]; [6],2560 ± 413 ng/mL
same,IC50,[5]; [7],812 ± 193 ng/mL
same,IC50,KBv200,20 ± 8 ng/mL
same,IC50,MCF7/adr,320 ± 71 ng/mL
same,IC50 (ng/ml) +ethanol extract,MCF7/adr; MCF7/adr,31 ± 10 ng/mL
O=C1c2c(O)ccc(O)c2C(=O)c2c(NCCNCCO)ccc(NCCNCCO)c21 [Mitoxantrone],IC50 (ng/ml) +Schisandrin B,"HL60/adr; HL60/adr, 72 hours",<1 ng/mL
same,RF (reversal folds of drug resistance),HL60/adr; [8],>68
same,IC50,HL60/adr; [9],68 ng/mL
COc1cc2c(c(OC)c1OC)-c1c(cc(OC)c(OC)c1OC)C[C@H](C)[C@H](C)C2 [Schisandrin A],sensitivity of MDR cancer cell K562/adr to daunorubicin (in words),[1]; FIG. 3,increase the sensitivity
same,increase of sensitivity of K562/adr to daunorubicin,"[1]; Schisandrin A 1 μg/ml, FIG. 3",about 8 folds
same,increase of sensitivity of K562/adr to daunorubicin,"[1]; Schisandrin A 10 μg/ml, FIG. 3",~71 folds
same,increase of sensitivity of K562/adr to daunorubicin,"[1]; Schisandrin A 20 μg/ml, FIG. 3",~100 folds
same,drug sensitivity of HL60/adr toward the anticancer agents (in words),HL60/adr,enhanced
same,daunorubicin accumulation within HL60/adr cells (in words),"MRP1; 60 minutes, FIG. 7",increased with the increasing concentration
COc1cc2c(c(OC)c1OC)-c1c(cc3c(c1OC)OCO3)C[C@@H](C)[C@@H](C)C2 [Schisandrin B],RF (reversal folds of vincristine resistance),"HL60/adr; HL60/adr, Schisandrin B 10 μg/ml",~10.5
same,RF (reversal folds of vincristine resistance),"HL60/adr; HL60/adr, Schisandrin B 20 μg/ml",>42
same,drug sensitivity of HL60/adr toward the anticancer agents (in words),HL60/adr,enhanced
same,daunorubicin accumulation within HL60/adr cells (in words),"MRP1; 90 minutes, FIG. 6",increased proportionately with increasing concentration
same,daunorubicin accumulation in HL60/adr cells versus absence of Schisandrin B,"MRP1; Schisandrin B 20 μg/ml, 90 minutes, FIG. 6",4 folds
same,Apoptotic + necrotic (%),MCF7,1.9 ± 0.1%
same,apoptosis and necrosis of MCF7 induced by doxorubicin (in words),MCF7; [10],significantly enhanced
same,Apoptotic(%),SMMC7721; [11],2.4 ± 2.1%
same,Necrotic(%),SMMC7721; [11],1.5 ± 0.9%
same,Apoptotic + necrotic (%),"SMMC7721; SMMC7721, vincristine 0.5 μg/ml, Schisandrin B 20 μg/ml",2.6 ± 0.4%
same,apoptosis and necrosis of SMMC7721 cells induced by doxorubicin (in words),SMMC7721; [10],significantly enhanced
same,apoptosis and necrosis of SMMC7721 induced by vincristine (in words),SMMC7721; Schisandrin B 20 μg/ml with vincristine 0.5 μg/ml,significantly enhanced
CC(=O)O[C@H]1C(=O)[C@@]2(C)[C@H]([C@H](OC(=O)c3ccccc3)[C@]3(O)C[C@H](OC(=O)[C@H](O)[C@@H](NC(=O)c4ccccc4)c4ccccc4)C(C)=C1C3(C)C)[C@]1(OC(C)=O)CO[C@@H]1C[C@@H]2O [Taxol],IC50,"K562/adr; Homo sapiens, anticancer agent in the absence of ethanol extracts, 72 hours, read-out: IC50 (ng/ml) −ethanol extract",110 ± 20 ng/mL
same,IC50 (ng/ml) +ethanol extract,K562/adr; 72 hours,41 ± 24 ng/mL
same,RF (reversal folds of drug resistance),K562/adr; by ethanol extracts (50 μg/ml),2.7
same,IC50,"[1]; K562/Adr, 72 h, K562/adr, anticancer agent in the absence of Schisandrin A, 72 hours, read-out: IC50 (ng/ml) −Schisandrin A",38 ± 11 ng/mL
same,IC50,"[1]; K562/Adr, 72 h, K562/adr, anticancer agent in the absence of Schisantherin A, 72 hours, read-out: IC50 (ng/ml) −Schisantherin A",38 ± 12 ng/mL
same,IC50 (ng/ml) +Schisandrin A,"[1]; K562/adr, 72 hours",6.4 ± 3.2 ng/mL
same,IC50 (ng/ml) +Schisantherin A,"[1]; K562/adr, 72 hours",1.1 ± 1.0 ng/mL
same,RF (reversal folds of drug resistance),"[1]; K562/adr, by Schisandrin A (10 μg/ml)",5.9
same,RF (reversal folds of drug resistance),"[1]; K562/adr, by Schisantherin A (10 μg/ml)",34.5
same,IC50 (ng/ml) +Schisandrin A,"HL60/adr; HL60/adr, anticancer agent in the presence of Schisandrin A (10 μg/ml), 72 hours",4.1 ± 1.4 ng/mL
same,IC50 (ng/ml) +Schisandrin B,"HL60/adr; HL60/adr, 72 hours",<1 ng/mL
same,IC50 (ng/ml) +Schisantherin A,"HL60/adr; HL60/adr, anticancer agent in the presence of Schisantherin A (10 μg/ml), 72 hours",4.3 ± 1.4 ng/mL
same,RF (reversal folds of drug resistance),"HL60/adr; HL60/adr, by Schisandrin A (10 μg/ml)",7.8
same,RF (reversal folds of drug resistance),HL60/adr; [8],>3
same,RF (reversal folds of drug resistance),"HL60/adr; HL60/adr, by Schisantherin A (10 μg/ml)",7.4
same,IC50,"HL60/adr; HL60/adr, anticancer agent in the absence of Schisandrin A, 72 hours, read-out: IC50 (ng/ml) −Schisandrin A",32 ± 9 ng/mL
same,IC50,HL60/adr; [9],3 ng/mL
same,IC50,"HL60/adr; HL60/adr, anticancer agent in the absence of Schisantherin A, 72 hours, read-out: IC50 (ng/ml) −Schisantherin A",32 ± 9 ng/mL
same,IC50 (ng/ml) +Schisandrin A,[2],1.91 ± 1.2 ng/mL
same,IC50 (ng/ml) +Schisantherin A,[2],2.4 ± 0.7 ng/mL
same,RF (reversal folds of drug resistance),[2]; by Schisandrin A (10 μg/ml),10.6
same,RF (reversal folds of drug resistance),[2]; by Schisantherin A (10 μg/ml),8.4
same,IC50 (ng/ml) +Schisandrin A,[3],6.1 ± 1.9 ng/mL
same,IC50 (ng/ml) +Schisantherin A,[3],6.3 ± 3.1 ng/mL
same,RF (reversal folds of drug resistance),[3]; by Schisandrin A (10 μg/ml),6.6
same,RF (reversal folds of drug resistance),[3]; by Schisantherin A (10 μg/ml),6.4
same,IC50,[4]; [6],20.2 ± 2.8 ng/mL
same,IC50,[4]; [7],20.2 ± 3.8 ng/mL
same,IC50,[5]; [6],40.5 ± 11 ng/mL
same,IC50,[5]; [7],40.6 ± 20.3 ng/mL
same,IC50,MCF7/adr,73 ± 27 ng/mL
same,IC50 (ng/ml) +ethanol extract,MCF7/adr; MCF7/adr,25 ± 12 ng/mL
same,RF (reversal folds of drug resistance),"MCF7/adr; MCF7/adr, by ethanol extracts (50 μg/ml)",2.9
COc1cc([C@@H]2c3cc4c(cc3[C@@H](O[C@@H]3O[C@@H]5CO[C@@H](C)O[C@H]5[C@H](O)[C@H]3O)[C@H]3COC(=O)[C@H]23)OCO4)cc(OC)c1O [VP-16],IC50 (ng/ml) −Schisandrin B,"HL60/adr; HL60/adr, anticancer agent in the absence of Schisandrin B, 72 hours",>10000 ng/mL
same,IC50 (ng/ml) +Schisandrin B,"HL60/adr; HL60/adr, 72 hours",1490 ± 213 ng/mL
same,RF (reversal folds of drug resistance),HL60/adr; [8],>6.7
COc1cccc2c1C(=O)c1c(O)c3c(c(O)c1C2=O)C[C@@](O)(C(=O)CO)C[C@@H]3O[C@H]1C[C@H](N)[C@H](O)[C@H](C)O1 [doxorubicin],IC50,"[1]; K562/Adr, read-out: IC50 of doxorubicin toward K562/adr, in the absence of Schisandrol A",875 ± 248 ng/mL
same,IC50,"[1]; K562/Adr, read-out: IC50 of doxorubicin toward K562/adr, in the presence of Schisandrol A (10 μg/ml)",168 ± 43 ng/mL
same,Apoptotic + necrotic (%),MCF7,7.2 ± 0.8%
same,Apoptotic(%),SMMC7721; [11],5.2 ± 2.6%
same,Necrotic(%),SMMC7721; [11],16.5 ± 4.3%
